This is an account of results in paper PMC10527105, “Chirality Matters: Fine-Tuning of Novel Monoamine Reuptake Inhibitors Selectivity through Manipulation of Stereochemistry” (Biomolecules, 2023).

Bounds are passed on as bounds.

As a reminder, the IC50 is the concentration needed to halve the response being measured. Higher therefore signals weaker potency in that assay. By Ki is commonly meant a dissociation constant, usually derived from enzyme kinetics or from competition with a known ligand.

Assay [1] addresses T1, noradrenaline transporter/SLC6A2 (NET) (Homo sapiens, UniProt P23975).
T1 construct: expressed in transfected cells; host or cells: HEK293
In words: Cellular uptake experiments: [3H]-noradrenaline reuptake inhibition in transporter-expressing HEK293 cells. Format: cell-based. The essentials: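 Stably transfected HEK293 cells preincubated 5 min with compound, then 1 µM [3H]-substrate for 2.5 min (SERT: 5 min) at 25 °C, pH 7.1 buffer; uptake counted by scintillation. Nonspecific uptake defined with 10 µM mazindol (DAT, NET) or 10 µM clomipramine (SERT).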

The target of another assay is T2, human NET (Homo sapiens, UniProt P23975).
T2 construct: host or cells: CHO
The assay can be described thus: Radioligand binding assay, [3H]nisoxetine, CHO cells (Eurofins Cerep). The conditions noted are these: human NET expressed in CHO cells; read-out: Ki, binding sites of the NET (against [3H]nisoxetine). The protocol: (§1) Binding experiments. Binding affinity to the human DAT, SERT, and NET stable proteins expressed in CHO cells was evaluated in in vitro radioligand binding assays. Non-specific binding was determined using [^3H]BTCP, [^3H]imipramine, and ^[3H] nisoxetine for hDAT, hSERT, and hNET, respectively. The IC50 values were calculated by non-linear regression analysis of the competition curves generated from the mean replicate values. The Ki values were calculated using the Cheng–Prusoff equation (Ki = IC50/(1 + […])). Binding assays were carried out by Eurofins (Cerep SA, Celle l’Evescault, France), Study No. 100053935. For an in-depth description, please refer to the report in the supporting information file.

The next assay deals with T3, human SERT (Homo sapiens, UniProt P31645).
T3 construct: host or cells: CHO
The assay can be described thus: Radioligand binding assay, [3H]imipramine, CHO cells (Eurofins Cerep). The conditions noted are these: human SERT expressed in CHO cells; read-out: Ki, binding sites of the SERT (against [3H]imipramine). Here is the method: as §1

Assay [2] deals with extracellular DA levels in the hippocampus. In words: In vivo micro-dialysis in freely moving mice. More on the design: species or system C57BL76J mice. The note with it: for treatment effect on extracellular DA levels in hippocampus: 1 mg/kg i.p., experimental day 1; for time course of extracellular DA levels after the peak / increase of extracellular DA levels in hippocampus: 10 mg/kg i.p.; for time course of extracellular DA levels after the peak: experimental day 2; for increase of extracellular DA levels in hippocampus: experimental day 2, within 20 min of administration, relative to baseline. The protocol: Male, adult C57BL76J mice (Janvier-Labs, Saint Berthevin, France) were group-housed in individually ventilated cages under standard laboratory conditions (temperature 22 ± 2 °C, humidity 45–65%, with a 12:12 h light-dark cycle lights on at 07:00 h). Animals had free access to food and water. All experimental procedures were approved by the Austrian Animal Experimentation Ethical Committee (Bundesministerium für Wissenschaft, Forschung und Wirtschaft, Kommission für Tierversuchsangelegenheiten) in compliance with international laws and policies.
Under isoflurane anesthesia (at 5% and 1.5% for induction and maintenance, respectively), a commercially available guide cannula (MAB 4.15 with OD 0.48 mm and ID 0.35 mm, Microbiotech, Stockholm, Sweden) was implanted above the right hippocampus (AP = −2.1 mm, ML = +1.5 mm, DV = −0.7 mm from Bregma) and closed with a dummy probe as described previously. After surgery, animals received buprenorphine (0.5 mg/kg s.c.) and meloxicam (1.0 mg/kg p.o. via the drinking water) for analgesic care. They were allowed to recover for 5–7 days while being single-housed and habituated to the experimenter and experimental procedures. On the day before the experiment, the dummy was replaced by a microdialysis probe (MAB 4.15.1 PES, Microbiotech, Sweden) that extended the guide cannula by 1 mm, thus reaching into the dorsal hippocampus. Microdialysis probes were connected to a microinfusion pump (CMA, Stockholm, Sweden) and a swivel-tether system via polyethylene tubing. Probes were constantly superfused with artificial cerebrospinal fluid (aCSF); consisting of in mM: 140 NaCl, 3.0 KCl, 1.2 CaCl2, 1.0 MgCl2, 1.0 Na2HPO4, pH 7.4, at a flow rate of 0.5 µL/min overnight and 1.0 µL/min during sample collection, respectively. Microdialysis fractions were collected every 20 min in pre-cooled microtubes containing antioxidative protection solution (in mM: 0.27 Na2EDTA, 100 acetic acid, 0.0125 ascorbic acid), vortexed, and immediately frozen at −80 °C until further analysis. At any time, the dead volumes generated by the inlet and outlet systems were considered to cause a temporal delay in fraction collection.
On experimental day 1, vehicle (30% Kolliphor EL) or one of the two enantiomers -7h and 8h (1 mg/kg) was administered i.p. after six baseline samples, and another 12 samples were collected. On experimental day 2, the collection of dialysates was resumed. Again, 6 baseline samples and 12 samples after the administration of either vehicle (30% Kolliphor EL) or 7h/8h (10 mg/kg) were collected. At the end of the experiment, microdialysis probes were superfused with high (100 mM) depolarizing concentrations of potassium (K^+) containing aCSF in order to elicit local […] for testing the functionality of the microdialysis system. Thereafter, animals were euthanized with an overdose of thiopental, decapitated, and their brains removed. The localization of the microdialysis probe was verified by observing cresyl violet-stained coronal sections (40 µm) under a light microscope. Three animals were removed from the analysis due to misplaced probes.
Quantification of dopamine in microdialysates. The quantification of dopamine in microdialysates was performed using a high-performance liquid chromatography (HPLC) system for electrochemical detection, as previously described. The HPLC system consisted of a Shimadzu (Kyoto, Japan) system controller (CBM-20A), a degassing unit (DGU-20A3R), and a micro HPLC pump (LC-20AD) operating at a flow rate of 55 µL/min. Microdialysis samples (5 µL) were injected via a SIL-20ACHT autosampler (Shimadzu, Japan) and separated on a C18 reversed-phase column (Inertsil ODS-3; 50 mm × 1.0 mm ID; 3 µm particle sizes, GL Sciences Inc., Tokyo, Japan) placed in a DECADE II electrochemical detector equipped with an amperometric flow cell (Antec, Zoeterwoude, The Netherlands). […]

T3 sequence (P31645 whole entry): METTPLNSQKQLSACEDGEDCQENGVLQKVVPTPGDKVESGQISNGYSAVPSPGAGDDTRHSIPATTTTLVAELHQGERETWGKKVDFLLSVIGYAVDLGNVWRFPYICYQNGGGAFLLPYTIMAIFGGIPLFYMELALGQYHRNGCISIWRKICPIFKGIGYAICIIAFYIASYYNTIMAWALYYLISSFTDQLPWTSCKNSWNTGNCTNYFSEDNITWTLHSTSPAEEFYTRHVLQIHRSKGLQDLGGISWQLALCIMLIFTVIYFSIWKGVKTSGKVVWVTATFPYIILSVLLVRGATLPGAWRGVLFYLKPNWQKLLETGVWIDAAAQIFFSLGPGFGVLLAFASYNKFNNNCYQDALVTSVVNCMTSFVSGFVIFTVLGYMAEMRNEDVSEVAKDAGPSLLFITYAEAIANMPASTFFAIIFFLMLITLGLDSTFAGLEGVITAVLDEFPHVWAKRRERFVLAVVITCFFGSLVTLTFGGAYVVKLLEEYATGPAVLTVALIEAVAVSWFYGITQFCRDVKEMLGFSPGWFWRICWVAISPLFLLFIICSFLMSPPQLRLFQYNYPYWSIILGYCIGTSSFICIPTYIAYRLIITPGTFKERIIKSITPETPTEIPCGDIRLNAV
T1 sequence (P23975 whole entry): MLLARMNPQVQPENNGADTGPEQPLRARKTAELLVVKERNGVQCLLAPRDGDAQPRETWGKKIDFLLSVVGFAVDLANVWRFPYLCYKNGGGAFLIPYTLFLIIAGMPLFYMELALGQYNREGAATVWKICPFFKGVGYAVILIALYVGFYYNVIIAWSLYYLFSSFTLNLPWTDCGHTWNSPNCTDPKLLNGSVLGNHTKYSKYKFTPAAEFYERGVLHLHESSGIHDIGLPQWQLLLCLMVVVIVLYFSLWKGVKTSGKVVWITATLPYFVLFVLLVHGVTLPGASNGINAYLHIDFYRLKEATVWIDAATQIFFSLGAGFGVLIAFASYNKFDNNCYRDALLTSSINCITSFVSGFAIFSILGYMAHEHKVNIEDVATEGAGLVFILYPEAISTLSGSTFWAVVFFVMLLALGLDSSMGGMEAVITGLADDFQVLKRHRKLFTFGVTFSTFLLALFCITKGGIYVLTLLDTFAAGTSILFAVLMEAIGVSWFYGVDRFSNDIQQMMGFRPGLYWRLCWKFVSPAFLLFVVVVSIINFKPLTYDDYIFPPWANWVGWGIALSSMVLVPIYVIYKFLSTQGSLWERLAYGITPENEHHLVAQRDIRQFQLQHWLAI
T2 sequence (P23975 whole entry): as above

Take `[O-][S@@+](Cc1cccs1)[C@@H](c1ccccc1)c1cccc(Br)c1` [Compound 7h, (S,S)-2-((((3-bromophenyl)(phenyl)methyl)sulfinyl)methyl)thiophene]: in assay [1], the IC50 was 16.4 ± 0.6 µM. Moreover, the inhibition constant (Ki) at human NET was above 10 µM. On human SERT, the inhibition constant Ki is above 10 µM. Moreover, in assay [2], the “treatment effect on extracellular DA levels in hippocampus” value was “no treatment effect”, the “time course of extracellular DA levels after the peak” value is listed as “remained elevated throughout a 2 h time period” and the “increase of extracellular DA levels in hippocampus” value is recorded as “approximately 35%”.

`[O-][S@+](Cc1cccs1)[C@H](c1ccccc1)c1cccc(Br)c1` [Compound 8h, (R,R)-2-((((3-bromophenyl)(phenyl)methyl)sulfinyl)methyl)thiophene] returned an IC50 in assay [1] above 50 µM. Besides, the Ki on human NET is above 10 µM. Also, at human SERT, the inhibition constant (Ki) was above 10 µM. Moreover, in assay [2], the “treatment effect on extracellular DA levels in hippocampus” value is on record as “no treatment effect”, the “time course of extracellular DA levels after the peak” value is “constantly declined from the peak values” and the “increase of extracellular DA levels in hippocampus” value was “approximately 35%”.
